{"source": "PubChem BioAssay (NCI)", "note": "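96-well plates; 48 h exposure; 5 concentrations. Endpoints by linear interpolation between flanking doses. Not reached: highest tested concentration assigned. At the TGI there is no net growth.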"}
{"tested_on": "786-0 renal", "test": "NCI anticancer screen, dose series, 48 h", "units": {"TGI": "µM"}}
{"smiles": "O=C(c1nc2ccc(Cl)cc2[nH]c1=O)C(O)c1ccccc1", "note": "(stereo unspecified)", "TGI": "> 100"}
{"smiles": "c1ccc(C2(c3ccccc3)SSC3(S2)C2CC4CC(C2)CC3C4)cc1", "note": "(stereo unspecified)", "TGI": "> 100"}
{"smiles": "N#Cc1ccccc1NC(=O)/C(=N\\Nc1ccc([N+](=O)[O-])cc1)C1C(=O)NC(=O)NC1=O", "TGI": "> 100"}
{"smiles": "CCCN=Cc1c(O)c(O)c(C(C)C)c2cc(C)c(-c3c(C)cc4c(C(C)C)c(O)c(O)c(C=NCCC)c4c3O)c(O)c12", "TGI": 39.3}
{"tested_on": "A498 renal", "test": "NCI anticancer screen, dose series, 48 h", "units": {"TGI": "µM"}}
{"smiles": "COC1=C(OC)C(O)(c2ccccc2)C1=O", "note": "(stereo unspecified)", "TGI": "> 100"}
{"smiles": "O=C(c1nc2ccc(Cl)cc2[nH]c1=O)C(O)c1ccccc1", "note": "(stereo unspecified)", "TGI": "> 100"}
{"smiles": "c1ccc(C2(c3ccccc3)SSC3(S2)C2CC4CC(C2)CC3C4)cc1", "note": "(stereo unspecified)", "TGI": "> 100"}
{"smiles": "N#Cc1ccccc1NC(=O)/C(=N\\Nc1ccc([N+](=O)[O-])cc1)C1C(=O)NC(=O)NC1=O", "TGI": "> 100"}
{"smiles": "CCCN=Cc1c(O)c(O)c(C(C)C)c2cc(C)c(-c3c(C)cc4c(C(C)C)c(O)c(O)c(C=NCCC)c4c3O)c(O)c12", "TGI": 65.3}
{"tested_on": "A549 NSCLC", "test": "NCI anticancer screen, dose series, 48 h", "units": {"TGI": "µM"}}
{"smiles": "COC1=C(OC)C(O)(c2ccccc2)C1=O", "note": "(stereo unspecified)", "TGI": "> 100"}
{"smiles": "O=C(c1nc2ccc(Cl)cc2[nH]c1=O)C(O)c1ccccc1", "note": "(stereo unspecified)", "TGI": "> 100"}
{"smiles": "c1ccc(C2(c3ccccc3)SSC3(S2)C2CC4CC(C2)CC3C4)cc1", "note": "(stereo unspecified)", "TGI": "> 100"}
{"smiles": "N#Cc1ccccc1NC(=O)/C(=N\\Nc1ccc([N+](=O)[O-])cc1)C1C(=O)NC(=O)NC1=O", "TGI": "> 100"}
{"smiles": "CCCN=Cc1c(O)c(O)c(C(C)C)c2cc(C)c(-c3c(C)cc4c(C(C)C)c(O)c(O)c(C=NCCC)c4c3O)c(O)c12", "TGI": "> 100"}
{"tested_on": "ACHN renal", "test": "NCI anticancer screen, dose series, 48 h", "units": {"TGI": "µM"}}
{"smiles": "COC1=C(OC)C(O)(c2ccccc2)C1=O", "note": "(stereo unspecified)", "TGI": "> 100"}
{"smiles": "O=C(c1nc2ccc(Cl)cc2[nH]c1=O)C(O)c1ccccc1", "note": "(stereo unspecified)", "TGI": "> 100"}
{"smiles": "c1ccc(C2(c3ccccc3)SSC3(S2)C2CC4CC(C2)CC3C4)cc1", "note": "(stereo unspecified)", "TGI": "> 100"}
{"smiles": "N#Cc1ccccc1NC(=O)/C(=N\\Nc1ccc([N+](=O)[O-])cc1)C1C(=O)NC(=O)NC1=O", "TGI": "> 100"}
{"smiles": "CCCN=Cc1c(O)c(O)c(C(C)C)c2cc(C)c(-c3c(C)cc4c(C(C)C)c(O)c(O)c(C=NCCC)c4c3O)c(O)c12", "TGI": "> 30.7"}
{"tested_on": "CAKI-1 renal", "test": "NCI anticancer screen, dose series, 48 h", "units": {"TGI": "µM"}}
{"smiles": "O=C(c1nc2ccc(Cl)cc2[nH]c1=O)C(O)c1ccccc1", "note": "(stereo unspecified)", "TGI": "> 100"}
{"smiles": "c1ccc(C2(c3ccccc3)SSC3(S2)C2CC4CC(C2)CC3C4)cc1", "note": "(stereo unspecified)", "TGI": "> 100"}
{"smiles": "N#Cc1ccccc1NC(=O)/C(=N\\Nc1ccc([N+](=O)[O-])cc1)C1C(=O)NC(=O)NC1=O", "TGI": "> 100"}
{"smiles": "CCCN=Cc1c(O)c(O)c(C(C)C)c2cc(C)c(-c3c(C)cc4c(C(C)C)c(O)c(O)c(C=NCCC)c4c3O)c(O)c12", "TGI": "> 100"}
{"tested_on": "CCRF-CEM leukemia", "test": "NCI anticancer screen, dose series, 48 h", "units": {"TGI": "µM"}}
{"smiles": "COC1=C(OC)C(O)(c2ccccc2)C1=O", "note": "(stereo unspecified)", "TGI": "> 100"}
{"smiles": "O=C(c1nc2ccc(Cl)cc2[nH]c1=O)C(O)c1ccccc1", "note": "(stereo unspecified)", "TGI": 25.4}
{"smiles": "c1ccc(C2(c3ccccc3)SSC3(S2)C2CC4CC(C2)CC3C4)cc1", "note": "(stereo unspecified)", "TGI": "> 100"}
{"smiles": "N#Cc1ccccc1NC(=O)/C(=N\\Nc1ccc([N+](=O)[O-])cc1)C1C(=O)NC(=O)NC1=O", "TGI": "> 100"}
{"smiles": "CCCN=Cc1c(O)c(O)c(C(C)C)c2cc(C)c(-c3c(C)cc4c(C(C)C)c(O)c(O)c(C=NCCC)c4c3O)c(O)c12", "TGI": 13.4}
{"tested_on": "COLO 205 colon", "test": "NCI anticancer screen, dose series, 48 h", "units": {"TGI": "µM"}}
{"smiles": "O=C(c1nc2ccc(Cl)cc2[nH]c1=O)C(O)c1ccccc1", "note": "(stereo unspecified)", "TGI": "> 100"}
{"smiles": "N#Cc1ccccc1NC(=O)/C(=N\\Nc1ccc([N+](=O)[O-])cc1)C1C(=O)NC(=O)NC1=O", "TGI": "> 100"}
{"smiles": "CCCN=Cc1c(O)c(O)c(C(C)C)c2cc(C)c(-c3c(C)cc4c(C(C)C)c(O)c(O)c(C=NCCC)c4c3O)c(O)c12", "TGI": "> 32.3"}
{"tested_on": "DLD-1 colon", "test": "NCI anticancer screen, dose series, 48 h", "units": {"TGI": "µM"}}
{"smiles": "O=C(c1nc2ccc(Cl)cc2[nH]c1=O)C(O)c1ccccc1", "note": "(stereo unspecified)", "TGI": "> 100"}
{"smiles": "c1ccc(C2(c3ccccc3)SSC3(S2)C2CC4CC(C2)CC3C4)cc1", "note": "(stereo unspecified)", "TGI": "> 100"}
{"smiles": "N#Cc1ccccc1NC(=O)/C(=N\\Nc1ccc([N+](=O)[O-])cc1)C1C(=O)NC(=O)NC1=O", "TGI": "> 100"}
{"tested_on": "DMS 114 small cell lung", "test": "NCI anticancer screen, dose series, 48 h", "units": {"TGI": "µM"}}
{"smiles": "O=C(c1nc2ccc(Cl)cc2[nH]c1=O)C(O)c1ccccc1", "note": "(stereo unspecified)", "TGI": "> 100"}
{"smiles": "c1ccc(C2(c3ccccc3)SSC3(S2)C2CC4CC(C2)CC3C4)cc1", "note": "(stereo unspecified)", "TGI": "> 100"}
{"smiles": "N#Cc1ccccc1NC(=O)/C(=N\\Nc1ccc([N+](=O)[O-])cc1)C1C(=O)NC(=O)NC1=O", "TGI": "> 100"}
{"smiles": "CCCN=Cc1c(O)c(O)c(C(C)C)c2cc(C)c(-c3c(C)cc4c(C(C)C)c(O)c(O)c(C=NCCC)c4c3O)c(O)c12", "TGI": 4.54}
{"tested_on": "DMS 273 small cell lung", "test": "NCI anticancer screen, dose series, 48 h", "units": {"TGI": "µM"}}
{"smiles": "COC1=C(OC)C(O)(c2ccccc2)C1=O", "note": "(stereo unspecified)", "TGI": "> 100"}
{"smiles": "O=C(c1nc2ccc(Cl)cc2[nH]c1=O)C(O)c1ccccc1", "note": "(stereo unspecified)", "TGI": "> 100"}
{"tested_on": "DU-145 prostate", "test": "NCI anticancer screen, dose series, 48 h", "units": {"TGI": "µM"}}
{"smiles": "CCCN=Cc1c(O)c(O)c(C(C)C)c2cc(C)c(-c3c(C)cc4c(C(C)C)c(O)c(O)c(C=NCCC)c4c3O)c(O)c12", "TGI": "> 100"}
{"tested_on": "EKVX NSCLC", "test": "NCI anticancer screen, dose series, 48 h", "units": {"TGI": "µM"}}
{"smiles": "COC1=C(OC)C(O)(c2ccccc2)C1=O", "note": "(stereo unspecified)", "TGI": "> 100"}
{"smiles": "O=C(c1nc2ccc(Cl)cc2[nH]c1=O)C(O)c1ccccc1", "note": "(stereo unspecified)", "TGI": "> 100"}
{"smiles": "c1ccc(C2(c3ccccc3)SSC3(S2)C2CC4CC(C2)CC3C4)cc1", "note": "(stereo unspecified)", "TGI": "> 100"}
{"smiles": "N#Cc1ccccc1NC(=O)/C(=N\\Nc1ccc([N+](=O)[O-])cc1)C1C(=O)NC(=O)NC1=O", "TGI": "> 100"}
{"smiles": "CCCN=Cc1c(O)c(O)c(C(C)C)c2cc(C)c(-c3c(C)cc4c(C(C)C)c(O)c(O)c(C=NCCC)c4c3O)c(O)c12", "TGI": "> 100"}
{"tested_on": "HCC-2998 colon", "test": "NCI anticancer screen, dose series, 48 h", "units": {"TGI": "µM"}}
{"smiles": "O=C(c1nc2ccc(Cl)cc2[nH]c1=O)C(O)c1ccccc1", "note": "(stereo unspecified)", "TGI": "> 100"}
{"smiles": "c1ccc(C2(c3ccccc3)SSC3(S2)C2CC4CC(C2)CC3C4)cc1", "note": "(stereo unspecified)", "TGI": "> 100"}
{"smiles": "N#Cc1ccccc1NC(=O)/C(=N\\Nc1ccc([N+](=O)[O-])cc1)C1C(=O)NC(=O)NC1=O", "TGI": "> 100"}
{"smiles": "CCCN=Cc1c(O)c(O)c(C(C)C)c2cc(C)c(-c3c(C)cc4c(C(C)C)c(O)c(O)c(C=NCCC)c4c3O)c(O)c12", "TGI": 44.3}
{"tested_on": "HCT-116 colon", "test": "NCI anticancer screen, dose series, 48 h", "units": {"TGI": "µM"}}
{"smiles": "O=C(c1nc2ccc(Cl)cc2[nH]c1=O)C(O)c1ccccc1", "note": "(stereo unspecified)", "TGI": "> 100"}
{"smiles": "c1ccc(C2(c3ccccc3)SSC3(S2)C2CC4CC(C2)CC3C4)cc1", "note": "(stereo unspecified)", "TGI": "> 100"}
{"smiles": "N#Cc1ccccc1NC(=O)/C(=N\\Nc1ccc([N+](=O)[O-])cc1)C1C(=O)NC(=O)NC1=O", "TGI": "> 100"}
{"smiles": "CCCN=Cc1c(O)c(O)c(C(C)C)c2cc(C)c(-c3c(C)cc4c(C(C)C)c(O)c(O)c(C=NCCC)c4c3O)c(O)c12", "TGI": 14.3}
{"tested_on": "HCT-15 colon", "test": "NCI anticancer screen, dose series, 48 h", "units": {"TGI": "µM"}}
{"smiles": "O=C(c1nc2ccc(Cl)cc2[nH]c1=O)C(O)c1ccccc1", "note": "(stereo unspecified)", "TGI": "> 100"}
{"smiles": "c1ccc(C2(c3ccccc3)SSC3(S2)C2CC4CC(C2)CC3C4)cc1", "note": "(stereo unspecified)", "TGI": "> 100"}
{"smiles": "N#Cc1ccccc1NC(=O)/C(=N\\Nc1ccc([N+](=O)[O-])cc1)C1C(=O)NC(=O)NC1=O", "TGI": "> 100"}
{"smiles": "CCCN=Cc1c(O)c(O)c(C(C)C)c2cc(C)c(-c3c(C)cc4c(C(C)C)c(O)c(O)c(C=NCCC)c4c3O)c(O)c12", "TGI": 48.1}
{"tested_on": "HL-60(TB) leukemia", "test": "NCI anticancer screen, dose series, 48 h", "units": {"TGI": "µM"}}
{"smiles": "COC1=C(OC)C(O)(c2ccccc2)C1=O", "note": "(stereo unspecified)", "TGI": "> 100"}
{"smiles": "O=C(c1nc2ccc(Cl)cc2[nH]c1=O)C(O)c1ccccc1", "note": "(stereo unspecified)", "TGI": 68.8}
{"smiles": "c1ccc(C2(c3ccccc3)SSC3(S2)C2CC4CC(C2)CC3C4)cc1", "note": "(stereo unspecified)", "TGI": "> 100"}
